US11207277B2, “Methods of treating diseases associated with high-fat diet and vitamin a deficiency using retinoic acid receptor agonists” (Cornell University, priority 2013, dated 2021)
“Also recorded” adds a separate entry of the source.

Columns and labels:
4-hydroxynonenal (4-HNE) [1] = test: 4-HNE staining of pancreas sections, HF-fed mice; assay type: in vivo; conditions: HF diet mice, AC261066 1.5 mg/100 ml drinking water 3 months; vs HF-vehicle
Procedure: AC261066 was dissolved in dimethyl sulfoxide (DMSO) at the concentration of 1.5 mg/ml, and diluted in the drinking water for mice to the final concentration of 1.5 mg/100 ml.
(§1) WT male C57/BL6 male mice were maintained on either a standard laboratory chow-fed diet (CFD) with 13% kcal fat, (diet #5053, Lab Diet, Inc, St. Louis, Mo.) or a high fat, western style diet (HFD) with 60% kcals from fat, (diet #58126, Lab Diet, Inc., St. Louis, Mo.) for 4 months. One month after the start of the high fat diet treatment, the high fat diet group was further split into 2 groups for 3 months: i) high fat diet and the drinking water containing 1% DMSO; ii) high fat diet and the drinking water containing 1.5 mg/100 ml AC261066, a specific RARβ agonist. Then mice were sacrificed by cervical dislocation. Blood and various tissue samples were harvested.
(§2) Paraffin-embedded sections (from two to four mice per group) were deparaffinized and rehydrated, and antigen retrieval was performed using an antigen unmasking solution (Vector Laboratories, H-3300). After quenching endogenous peroxidase with 3% H2O2, the tissue sections were blocked with the blocking reagent (from the M.O.M. kit from Vector Laboratories). Then, tissue sections were incubated with a 4-HNE antibody (1:400; mouse monoclonal antibody: Abcam, ab48506) overnight at 4° C. […]

RARβ2 [2] = test: Semi-quantitative PCR of pancreatic tissue, HF-fed mice; assay type: in vivo; conditions: HF diet mice + AC261066 vs HF-vehicle
Description: as §1
(§3) Total RNA was extracted from mouse tissues using TRIzol reagent (Life technologies) and (1 μg) was used to synthesize cDNA. cDNA synthesis was performed at 42° C. for 1 h in a final volume of 20 μl using qScript (Quanta, MD). Semi-quantitative PCR were performed Taq DNA polymerase (Invitrogen, CA). Three step PCR was run as follows: 94° C. for 30 s, 58-64° C. for 45 s for primer annealing and 72° C. for 1 min for primer extension. The number of cycles for each primer pair for amplification in the linear range was determined experimentally. PCR products were resolved on 2% agarose gels and visualized by staining with ehtidium bromide. Primers for gene expression used were as follows: […]

RARβ2 [3] = test: Semi-quantitative PCR of pancreatic tissue, LRAT -/- vitamin A deficient mice; assay type: in vivo; conditions: AC261066 for 8 weeks
Procedure: FIG. 10. Gene expression of RARβ2 in pancreatic tissue from LRAT −/− vitamin A sufficient mice (VAS, normal control diet), LRAT −/− vitamin A deficient (VAD) mice, and LRAT −/− vitamin A deficient (VAD) mice treated with AC261066 for 8 weeks.
as §3

[4] = test system: hepatocyte lipid accumulation; test: Hematoxylin and eosin staining of liver sections (hepatic steatosis); assay type: in vivo; conditions: HF diet mice 4 months + AC261066 or CD1530; vs HF-vehicle
Description: as §1
At sacrifice, fresh mouse liver samples were fixed in 4% formaldehyde solution for 24 hr and embedded in paraffin blocks. Liver paraffin sections were cut 5 microns thick and mounted on glass slides and stained with hematoxylin and eosin (H and E) using standard protocols.

TNF-α [5] = test: Semi-quantitative PCR liver, TNF-α; assay type: in vivo; conditions: HF diet mice + AC261066 or CD1530
Description: as §1
as §3, with “resolved” for “resolved on”

[6] = Serum triglyceride level measurement; assay type: in vivo, mice; conditions: HF+AC261066 feeding vs CF controls
Description: as §1
The analysis of serum triglyceride levels was carried out using a bichromatic assay at the Laboratory of Comparative Pathology of the Memorial Sloan-Kettering Cancer Center. Chow-fed diet (CFD) n=2; high fat diet (HFD) n=3; high fat diet+AC261066 (HFDAC) n=5.

4-hydroxynonenal (4-HNE) [7] = test: 4-HNE staining of liver sections; assay type: in vivo, mice; conditions: HF diet + AC261066 vs HF diet group
Description: as §1
as §2, with “antibody;” for “antibody:”, “C. The sections were then incubated with secondary antibodies (1:200, anti-mouse IgG from the M.O.M kit). As a negative control, sections were stained without incubation with primary antibodies.” for “C.”

renal lipid accumulation = test: Hematoxylin and eosin staining of kidney sections; assay type: in vivo; conditions: HF diet mice + AC261066 or CD1530; vs HF-vehicle
Description: as §1
At sacrifice, fresh mouse liver samples were fixed in 4% formaldehyde solution for 24 hr and embedded in paraffin blocks. Kidney paraffin sections were cut 5 microns thick and mounted on glass slides and stained with hematoxylin and eosin (H and E) using standard protocols.

TNF-α [8] = test: Semi-quantitative PCR kidney, TNF-α; assay type: in vivo; conditions: HF diet mice + AC261066
Description: as §1
as §3, with “(Invitrogen.” for “(Invitrogen,”

4-hydroxynonenal (4-HNE) [9] = test: 4-HNE staining of kidney sections; assay type: in vivo, mice; conditions: HF diet + AC261066 vs HF diet group
Description: as §1
as §2, with “antibody;” for “antibody:”, “C. The sections were then incubated with secondary antibodies (1:200, anti-mouse IgG from the M.O.M kit). As a negative control, sections were stained without incubation with primary antibodies.” for “C.”

## CCCCOCCOc1nc(-c2ccc(C(=O)O)c(F)c2)sc1C [AC261066]
4-hydroxynonenal (4-HNE) [1]
  4-HNE staining intensity (oxidative stress) in pancreatic islets: reduces oxidative stress in the pancreatic islets; also recorded: markedly lower 4-HNE staining intensity levels
RARβ2 [2]
  RARβ (RARβ2) mRNA levels in pancreas: increased the RAR 32 mRNA levels; also recorded: increased compared to HF-vehicle treated mice
RARβ2 [3]
  RARβ2 mRNA levels in pancreas: increased the RARβ2 mRNA levels
[4]
  hepatocyte lipid infiltration / hepatic steatosis (H and E): diminished hepatic steatosis; also recorded: prevent hepatic steatosis; also recorded: marked decreased hepatocyte lipid infiltration
TNF-α [5]
  mRNA levels of TNF-α in liver: significantly diminish
[6]
  serum triglyceride levels: does not increase triglyceride levels; also recorded: does not affect serum triglyceride levels
4-hydroxynonenal (4-HNE) [7]
  4-HNE levels (oxidative stress) in liver: reduces oxidative stress and ROS; also recorded: lower 4-HNE levels than those from the high fat diet group
Renal lipid accumulation
  renal lipid infiltration/accumulation (H and E): diminished renal lipid accumulation; also recorded: markedly decreased renal lipid infiltration
TNF-α [8]
  mRNA levels of TNF-α in kidney: reduces the levels of TNF-alpha
4-hydroxynonenal (4-HNE) [9]
  4-HNE levels (oxidative stress) in kidneys: reduces oxidative stress (ROS); also recorded: lower 4-HNE levels than those from the high fat diet group
